Laboratory results as given in patent US10471043B2, “Compounds and methods of treating bacterial infections” (ULTUPHARMA AB, priority 2015, dated 2019).
Read-outs that look alike come from different tables or passages of the source.

How the values were obtained:
[1] = system: Staphylococcus aureus strain LMG15975; test: MIC by broth micro-dilution, AM3/PBS 1:1; format: cell-based
Procedure, shortened: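 Broth microdilution in AM3:PBS 1:1 (selected values checked in cation-adjusted MHB), inoculum 3-5×10^5 cells/ml, 16-20 h at 37 °C. MIC is the lowest concentration giving no visible growth.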

A. baumannii = test: MIC by broth micro-dilution; format: cell-based; conditions: A. baumannii (G−), Table 2
Bacillus cereus = test: MIC by broth micro-dilution; format: cell-based; conditions: Table 4, read-out: MIC (μg/ml) B. cereus
M. frederiksbergense = test: MIC by broth micro-dilution; format: cell-based; conditions: Table 4; read-out: MIC (μg/ml) M. frederiksbergense
[2] = system: mupirocin-resistant strains of Staphylococcus aureus; test: MIC against mupirocin-resistant strains; format: cell-based; conditions: Staphylococcus aureus; S. aureus V55, mupirocin-resistant; read-out: MIC
Experimental: At first (Table 1), MIC is determined by broth micro-dilution method. The test medium is Antibiotic Medium 3 (AM3; Difco Ltd) mixed with Phosphate Buffered Saline (PBS) in proportions 1:1. Selected MIC values are verified using cation-adjusted Mueller Hinton Broth (MHB; BD). Cell concentration of tested pathogen is adjusted to between 3 and 5×10^5 cells per ml. To verify cell concentration of tested pathogen, viable cell counts are performed directly after each MIC-test by dilution method with PBS as a dilution solvent. Cells are counted on the agar plates with 50% strength Vegetable Peptone Broth (50% VPB; Oxoid Ltd) after 16 to 20 h of incubation at 37° C.
Cells of pathogen suspended in test medium are distributed to the wells and the plates are incubated for 16 to 20 h at 37° C. Negative controls are wells with the test medium only and positive controls are wells with the pathogen in test medium. The MIC is defined as the lowest concentration of each compound with no visible growth of pathogen.

S. aureus = test: Antimicrobial Susceptibility Test by Broth Microdilution, M07-A9 CLSI; format: cell-based; conditions: Staphylococcus aureus
E. faecium = test: as above; format: cell-based
E. faecalis = test: as above; format: cell-based; conditions: Enterococcus faecalis
S. pneumoniae = test: as above; format: cell-based; conditions: Streptococcus pneumoniae
S. pyogenes = test: as above; format: cell-based; conditions: Streptococcus pyogenes
Serratia marescens = test: MIC panel of Gram-negative bacteria (Table 7); format: cell-based; conditions: EN0454 Serratia marescens G− PKL 3692
Micrococcus luteus = test: MIC panel of Gram-negative bacteria (Table 7); format: cell-based; conditions: EN0455 Micrococcus luteus G+ PKL 3693
E. coli = test: MIC panel of Gram-negative bacteria (Table 7); format: cell-based; conditions: Escherichia coli
P. aeruginosa = test: MIC panel of Gram-negative bacteria (Table 7); format: cell-based; conditions: Pseudomonas aeruginosa
Enterobacter aerogenes = test: MIC panel of Gram-negative bacteria (Table 7); format: cell-based; conditions: Klebsiella aerogenes; EN0461 Enterobacter aerogenes G− PKL 3706
S. epidermidis = test: MIC panel of Gram-negative bacteria (Table 7); format: cell-based; conditions: Staphylococcus epidermidis; EN0456 S. epidermidis G+ PKL 3694
Citrobacter sp. = test: MIC panel of Gram-negative bacteria (Table 7); format: cell-based; conditions: EN0465 Citrobacter sp. G− PKL 3710
S. typhimurium = test: MIC panel of Gram-negative bacteria (Table 7); format: cell-based; conditions: Salmonella enterica; EN0466 S. typhimurium G− TH6509
A. Pittii/nosocomialis = test: MIC panel of Gram-negative bacteria (Table 7); format: cell-based; conditions: Acinetobacter pittii; EN0180 A. Pittii/nosocomialis G−
K. oxytoca = test: MIC panel of Gram-negative bacteria (Table 7); format: cell-based; conditions: Klebsiella oxytoca; EN0392 K. oxytoca G−
K. pneumoniae = test: MIC panel of Gram-negative bacteria (Table 7); format: cell-based; conditions: Klebsiella pneumoniae
HepG2 cells = conditions: human, 48 h
in vitro [3] = conditions: human, CC50 (μg/mL)
in vitro [4] = conditions: human, Caco-2

CCCCCCCCCC1CC(O)=C(C(=O)CCC)C(=O)O1 (stereo not drawn) [Ex. 1, 3-Butyryl-6-nonyl-4-hydroxy-5,6-dihydro-2H-pyran-2-one]
≤ 0.1 µg/mL: MIC [2]
16 to 24 µg/mL: MIC (A. baumannii; Acinetobacter baumannii, read-out: MIC (μg/ml) A. baumannii)
0.8 µg/mL: MIC ([1]; LMG15975, S. aureus (G+), Table 2, read-out: MIC (μg/ml) S. aureus) | MIC ([1]; LMG15975, S. aureus LMG 15975 (SLU), Methicillin-resistant, Table 5, read-out: MIC (μg/mL)) | MIC ([1]; LMG15975, S. aureus LMG15975, Table 1, read-out: MIC (μg/ml)) | MIC ([1]; LMG15975, Table 4, read-out: MIC (μg/ml) S. aureus)
> 64 µg/mL: MIC (Serratia marescens) | MIC (E. coli; EN001 E. coli WT, ENABLE Primary MIC panel) | MIC (E. coli; EN003 E. coli D22 (lps mut), ENABLE Primary MIC panel) | MIC (E. coli; EN0012 E. coli, ENABLE L2C MIC panel) | MIC (E. coli; EN0458 E. coli B G− PKL 3698) | MIC (P. aeruginosa; EN004 P. aeruginosa WT, ENABLE Primary MIC panel) | MIC (P. aeruginosa; EN0014 P. aeruginosa, ENABLE L2C MIC panel) | MIC (P. aeruginosa; EN0015 P. aeruginosa Efflux mut, ENABLE L2C MIC panel) | MIC (P. aeruginosa; EN0422 P. aeruginosa G−) | MIC (P. aeruginosa; EN0459 P. aeruginosa G− PKL 3699) | MIC (P. aeruginosa; EN0460 P. aeruginosa G− PKL 3704) | MIC (Enterobacter aerogenes) | MIC (Citrobacter sp.) | MIC (S. typhimurium) | MIC (A. Pittii/nosocomialis) | MIC (K. oxytoca) | MIC (K. pneumoniae; EN006 K. pneumoniae WT, ENABLE Primary MIC panel) | MIC (K. pneumoniae; EN0010 K. pneumoniae, ENABLE L2C MIC panel (isogenic efflux pairs))
4 µg/mL: MIC (S. aureus; ATCC29213, S. aureus ATCC29213, QC strain, Table 5) | MIC (S. aureus; ATCC29213, S. aureus ATCC 29213, QC strain, Table 6) | MIC (S. aureus; MRSA, S. aureus PICI, Table 6) | MIC (S. aureus; S. aureus 56 Japan, Macrolide-resistant (MLSi)) | MIC (S. aureus; S. aureus PICI, Methicillin-resistant, Table 5) | MIC (S. pneumoniae; ATCC49619, S. pneumoniae ATCC 49619, QC strain) | MIC (S. pneumoniae; S. pneumoniae 158bg, Macrolide-resistant (M)) | MIC (S. pneumoniae; S. pneumoniae 956, Macrolide-resistant (MLSc)) | MIC (S. pneumoniae; S. pneumoniae TE 122-026, Tetracycline-resistant) | MIC (E. coli; EN002 E. coli DtolC, ENABLE Primary MIC panel)
33 µM: CC50 at 48 h (in vitro [3])
8 to 16 µg/mL: MIC (μg/ml) A. baumannii (A. baumannii)
2 µg/mL: MIC (S. aureus; MSSA, S. aureus MO 17, MSSA, Table 6) | MIC (S. aureus; S. aureus 853E, Macrolide-sensitive) | MIC (S. aureus; S. aureus 4216, Tetracycline-resistant) | MIC (S. aureus; S. aureus 4384 (SSI), Methicillin-resistant) | MIC (S. aureus; S. aureus FR 131, Quinolone-resistant) | MIC (S. aureus; S. aureus MO17, Methicillin-sensitive, Table 5) | MIC (S. aureus; S. aureus PK2, Macrolide-resistant (MLSc)) | MIC (E. faecium; E. faecium E.coc 7, Vancomycin -resistant, Table 6) | MIC (E. faecium; Enterococcus faecium, E. faecium 7, Vancomycin-resistant, Table 5, read-out: MIC) | MIC (E. faecalis; E. faecalis E.cocco 12, Vancomycin -resistant) | MIC (E. faecalis; E. faecalis E.cocco 24, Vancomycin -sensitive, Table 6) | MIC (E. faecalis; E. faecalis 24, Vancomycin-sensitive, Table 5) | MIC (P. aeruginosa; EN005 P. aeruginosa Efflux mut, ENABLE Primary MIC panel)
≤ 0.5 µg/mL: MIC (M. frederiksbergense)
≤ 1 µg/mL: MIC (Bacillus cereus)
53 ×10⁻⁶ cm/s: Papp at 120 min, 10 μM (in vitro [4])
2.5 µM: MIC ([1]; LMG15975, S. aureus LMG15975, Table 1, read-out: MIC)
38 µM: CC50 (HepG2 cells)
8 µg/mL: MIC (S. pneumoniae; BAA1407, S. pneumoniae BAA1407, Macrolide-resistant (M + MLS)) | MIC (S. pneumoniae; S. pneumoniae 19A-TN, Quinolone-sensitive) | MIC (S. pneumoniae; S. pneumoniae SP030, Macrolide- sensitive) | MIC (S. pneumoniae; S. pneumoniae TE 122-024, Quinolone-resistant) | MIC (S. pyogenes; S. pyogenes 2 Finland, Macrolide-resistant (M)) | MIC (S. pyogenes; S. pyogenes 29A-TF, Macrolide- sensitive) | MIC (S. pyogenes; S. pyogenes 21 Finland, Macrolide-resistant (MLSc)) | MIC (K. pneumoniae; EN0011 K. pneumoniae Efflux mut, ENABLE L2C MIC panel)
1 µg/mL: MIC (S. aureus; S. aureus 6 Holland, Macrolide-resistant (M)) | MIC (S. epidermidis)
0.5 µg/mL: MIC (Micrococcus luteus) | MIC (E. coli; EN0013 E. coli Del-tolC, ENABLE L2C MIC panel)
